Measured values reported in patent US12186283B2, “Bismuth-thiol compositions and methods of use” (Microbion Corporation, priority 2018, dated 2025).
Values after ≈ are worked out from the molar mass of the structure shown.

Legend:
[1] = tested on: Escherichia coli; conditions: E. coli ATCC 25922, QC organism; cited from earlier work
[2] = tested on: Pseudomonas aeruginosa; conditions: P. aeruginosa ATCC 27853, QC organism; cited from earlier work
[3] = tested on: Escherichia coli; experiment: Broth microdilution MIC (Example 12)
[4] = tested on: Klebsiella pneumoniae; experiment: Broth microdilution MIC (Example 12)
[5] = tested on: Pseudomonas aeruginosa; experiment: Broth microdilution MIC (Example 12)
[6] = tested on: Acinetobacter baumannii; experiment: Broth microdilution MIC (Example 12)

CC(C)(O/N=C(\C(=O)N[C@@H]1C(=O)N2C(C(=O)[O-])=C(C[n+]3ccccc3)CS[C@H]12)c1csc(N)n1)C(=O)O [CAZ]
MIC, QC range [1]: (0.06-0.5) μg/mL | MIC, QC range [2]: (1-4) μg/mL | MIC ([3]; E. coli ATCC 25922, QC organism): 0.25 µg/mL (≈ 0.457 µM) | MIC ([3]; E. coli ATCC 35218, QC organism): 0.12 µg/mL (≈ 0.22 µM) | MIC ([3]; Escherichia coli ATCC 35218, ESBL): 0.12 µg/mL (≈ 0.22 µM) | MIC ([3]; Escherichia coli ATCC BAA-2471, NDM): >64 µg/mL | MIC ([3]; Escherichia coli CDC 114, ESBL/KPC): >64 µg/mL | MIC ([3]; Escherichia coli CDC 118, ESBL/NDM): >64 µg/mL | MIC ([3]; Escherichia coli CDC 435, NDM): >64 µg/mL | MIC ([3]; Escherichia coli CDC 451, KPC): 64 µg/mL (≈ 117 µM) | MIC ([3]; Escherichia coli CDC 503, ESBL/NDM): >64 µg/mL | MIC ([3]; Escherichia coli MMX 5745, KPC): 32 µg/mL (≈ 58.5 µM) | MIC ([3]; Escherichia coli MMX 5755, ESBL): >64 µg/mL | MIC ([3]; Escherichia coli MMX 5756, ESBL): >64 µg/mL | MIC ([3]; Escherichia coli MMX 5758, ESBL): 16 µg/mL (≈ 29.3 µM) | MIC ([4]; K. pneumoniae ATCC BAA-1705, QC organism): >64 µg/mL | MIC ([4]; Klebsiella pneumoniae ATCC BAA-1705, ESBL/KPC): >64 µg/mL | MIC ([4]; Klebsiella pneumoniae CDC 112, KPC): >64 µg/mL | MIC ([4]; Klebsiella pneumoniae CDC 113, ESBL/KPC): >64 µg/mL | MIC ([4]; Klebsiella pneumoniae CDC 115, ESBL/KPC): >64 µg/mL | MIC ([4]; Klebsiella pneumoniae CDC 120, ESBL/KPC): >64 µg/mL | MIC ([4]; Klebsiella pneumoniae CDC 126, ESBL/KPC): 4 µg/mL (≈ 7.32 µM) | MIC ([4]; Klebsiella pneumoniae CDC 129, ESBL/KPC): >64 µg/mL | MIC ([4]; Klebsiella pneumoniae CDC 135, ESBL/VIM): >64 µg/mL | MIC ([4]; Klebsiella pneumoniae CDC 138, ESBL/NDM): >64 µg/mL | MIC ([4]; Klebsiella pneumoniae CDC 158, ESBL/NDM/OXA): >64 µg/mL | MIC ([4]; Klebsiella pneumoniae MMX 9029, ESBL): 4 µg/mL (≈ 7.32 µM) | MIC ([5]; P. aeruginosa ATCC 27853, QC organism): 2 µg/mL (≈ 3.66 µM) | MIC ([5]; Pseudomonas aeruginosa CDC 230, VIM/OXA): 64 µg/mL (≈ 117 µM) | MIC ([5]; Pseudomonas aeruginosa CDC 231, KPC/OXA): >64 µg/mL | MIC ([5]; Pseudomonas aeruginosa CDC 241, IMP/OXA): >64 µg/mL | MIC ([5]; Pseudomonas aeruginosa CDC 246, NDM/OXA): >64 µg/mL | MIC ([5]; Pseudomonas aeruginosa CDC 250, NDM/OXA): >64 µg/mL | MIC ([5]; Pseudomonas aeruginosa CDC 356, KPC): 64 µg/mL (≈ 117 µM) | MIC ([5]; Pseudomonas aeruginosa CDC 439, IMP): >64 µg/mL | MIC ([5]; Pseudomonas aeruginosa CDC 444, VIM): 32 µg/mL (≈ 58.5 µM) | MIC ([5]; Pseudomonas aeruginosa CDC 457, VIM): >64 µg/mL | MIC ([5]; Pseudomonas aeruginosa CDC 516, KPC/AmpC): 64 µg/mL (≈ 117 µM) | MIC ([5]; Pseudomonas aeruginosa CDC 518, KPC/AmpC): 32 µg/mL (≈ 58.5 µM) | MIC ([6]; Acinetobacter baumannii CDC 273, ESBL/OXA): 64 µg/mL (≈ 117 µM) | MIC ([6]; Acinetobacter baumannii CDC 274, ESBL/OXA): >64 µg/mL | MIC ([6]; Acinetobacter baumannii CDC 275, ESBL/OXA): >64 µg/mL | MIC ([6]; Acinetobacter baumannii CDC 277, ESBL/OXA): >64 µg/mL | MIC ([6]; Acinetobacter baumannii CDC 284, ESBL/OXA): 64 µg/mL (≈ 117 µM) | MIC ([6]; Acinetobacter baumannii CDC 307, OXA): 64 µg/mL (≈ 117 µM) | MIC ([6]; Acinetobacter baumannii CDC 308, ESBL/OXA): 64 µg/mL (≈ 117 µM) | MIC ([6]; Acinetobacter baumannii CDC 311, OXA): >64 µg/mL | MIC ([6]; Acinetobacter baumannii CDC 312, OXA): >64 µg/mL | MIC ([6]; Acinetobacter baumannii CDC 313, ESBL/OXA): >64 µg/mL | MIC ([6]; Acinetobacter baumannii NCTC 13304, OXA): >64 µg/mL
